In the supplement of paper PMC4628005:

How the values were obtained:
Conditions in all cases: drug exposure time: 96 h
17-AAG = compound: C=CCNC1=C2C[C@@H](C)C[C@H](OC)[C@H](O)[C@@H](C)/C=C(\C)[C@H](OC(N)=O)[C@@H](OC)/C=C\C=C(/C)C(=O)NC(=CC1=O)C2=O [17-AAG]
Method: (§1)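 Same SRB 96 h IC50 screen on breast cancer cell lines (RPMI 1640 + 10% FBS, collagen I-coated 96-well plates, triplicates, 12 dilutions), for drugs with a different dose range: Bortezomib up to 2e-5 M; Sirolimus and 17-AAG up to 2e-6 M. Sirolimus values at the 2e-6 M top dose are censored.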

Sirolimus = compound: CO[C@H]1C[C@@H]2CC[C@@H](C)[C@@](O)(O2)C(=O)C(=O)N2CCCC[C@H]2C(=O)O[C@H]([C@H](C)C[C@@H]2CC[C@@H](O)[C@H](OC)C2)CC(=O)[C@H](C)/C=C(\C)[C@@H](O)[C@@H](OC)C(=O)[C@H](C)C[C@H](C)/C=C/C=C/C=C/1C [Sirolimus]
Method: as §1

Bortezomib = compound: CC(C)C[C@H](NC(=O)[C@H](Cc1ccccc1)NC(=O)c1cnccn1)B(O)O [Bortezomib]
Method: as §1

Sorafenib = compound: CNC(=O)c1cc(Oc2ccc(NC(=O)Nc3ccc(Cl)c(C(F)(F)F)c3)cc2)ccn1 [Sorafenib]
Method: (§2)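 Breast cancer cell lines were grown in RPMI 1640 with 10% FBS on collagen I-coated 96-well plates and treated for 96 h (from 24 h after seeding) with 12 dilutions per drug, in triplicate. Growth was read by sulforhodamine B total-protein staining (absorbance 570 nm) relative to diluent control, and IC50 was calculated. The top dose was 1e-5 M for most drugs; Bortezomib went to 2e-5 M and Sirolimus and 17-AAG to 2e-6 M[…].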

Panobinostat = compound: Cc1[nH]c2ccccc2c1CCNCc1ccc(/C=C/C(=O)NO)cc1 [Panobinostat]
Method: as §2

Vandetanib = compound: COc1cc2/c(=N/c3ccc(Br)cc3F)nc[nH]c2cc1OCC1CCN(C)CC1 [Vandetanib]
Method: as §2

Decitabine = compound: Nc1ncn([C@H]2C[C@H](O)[C@@H](CO)O2)c(=O)n1 [Decitabine]
Method: as §2

MI-219 = compound: CC(C)(C)C[C@H]1N[C@@H](C(=O)NCC[C@H](O)CO)[C@H](c2cccc(Cl)c2)[C@@]12C(=O)Nc1cc(Cl)c(F)cc12 [MI-219]
Method: as §2

Paclitaxel = compound: CC(=O)O[C@H]1C(=O)[C@@]2(C)[C@H]([C@H](OC(=O)c3ccccc3)[C@]3(O)C[C@H](OC(=O)[C@H](O)[C@@H](NC(=O)c4ccccc4)c4ccccc4)C(C)=C1C3(C)C)[C@]1(OC(C)=O)CO[C@@H]1C[C@@H]2O [Paclitaxel]
Method: as §2

Brivanib = compound: Cc1cc2c(F)c(Oc3ncnn4cc(OC[C@@H](C)O)c(C)c34)ccc2[nH]1 [Brivanib]
Method: as §2

Vorinostat = compound: O=C(CCCCCCC(=O)Nc1ccccc1)NO [Vorinostat]
Method: as §2

Tipifarnib = compound: Cn1cncc1[C@@](N)(c1ccc(Cl)cc1)c1ccc2c(c1)c(-c1cccc(Cl)c1)cc(=O)n2C [Tipifarnib]
Method: as §2

Serdemetan = compound: c1ccc2c(CCNc3ccc(Nc4ccncc4)cc3)c[nH]c2c1 [Serdemetan]
Method: as §2

Methotrexate = compound: CN(Cc1cnc2nc(N)nc(N)c2n1)c1ccc(C(=O)N[C@@H](CCC(=O)O)C(=O)O)cc1 [Methotrexate]
Method: as §2

Sunitinib = compound: CCN(CC)CCNC(=O)c1c(C)[nH]c(/C=C2\C(=O)Nc3ccc(F)cc32)c1C [Sunitinib]
Method: as §2

Nutlin-3 = compound: COc1ccc(C2=N[C@@H](c3ccc(Cl)cc3)[C@@H](c3ccc(Cl)cc3)N2C(=O)N2CCNC(=O)C2)c(OC(C)C)c1 [Nutlin-3]
Method: as §2

Erlotinib = compound: C#Cc1cccc(Nc2ncnc3cc(OCCOC)c(OCCOC)cc23)c1 [Erlotinib]
Method: as §2

Tamoxifen = compound: CC/C(=C(\c1ccccc1)c1ccc(OCCN(C)C)cc1)c1ccccc1 [Tamoxifen]
Method: as §2

5-Fluorouracil = compound: O=c1[nH]cc(F)c(=O)[nH]1 [5-Fluorouracil]
Method: as §2

Quisinostat = compound: Cn1cc(CNCC2CCN(c3ncc(C(=O)NO)cn3)CC2)c2ccccc21 [Quisinostat]
Method: as §2

Azacitidine = compound: Nc1ncn([C@@H]2O[C@H](CO)[C@@H](O)[C@H]2O)c(=O)n1 [Azacitidine]
Method: as §2

Mitoxantrone = compound: O=C1c2c(O)ccc(O)c2C(=O)c2c(NCCNCCO)ccc(NCCNCCO)c21 [Mitoxantrone]
Method: as §2

Doxorubicin = compound: COc1cccc2c1C(=O)c1c(O)c3c(c(O)c1C2=O)C[C@@](O)(C(=O)CO)C[C@@H]3O[C@H]1C[C@H](N)[C@H](O)[C@H](C)O1 [Doxorubicin]
Method: as §2

Docetaxel = compound: CC(=O)O[C@@]12CO[C@@H]1C[C@H](O)[C@@]1(C)C(=O)[C@H](O)C3=C(C)[C@@H](OC(=O)[C@H](O)[C@@H](NC(=O)OC(C)(C)C)c4ccccc4)C[C@@](O)([C@@H](OC(=O)c4ccccc4)[C@H]21)C3(C)C [Docetaxel]
Method: as §2

Belinostat = compound: O=C(/C=C/c1cccc(S(=O)(=O)Nc2ccccc2)c1)NO [Belinostat]
Method: as §2

Gefitinib = compound: COc1cc2ncnc(Nc3ccc(F)c(Cl)c3)c2cc1OCCCN1CCOCC1 [Gefitinib]
Method: as §2

Lapatinib = compound: CS(=O)(=O)CCNCc1ccc(-c2ccc3ncnc(Nc4ccc(OCc5cccc(F)c5)c(Cl)c4)c3c2)o1 [Lapatinib]
Method: as §2

Dasatinib = compound: Cc1nc(Nc2ncc(C(=O)Nc3c(C)cccc3Cl)s2)cc(N2CCN(CCO)CC2)n1 [Dasatinib]
Method: as §2

ARQ197 = compound: O=C1NC(=O)[C@@H](c2cn3c4c(cccc24)CCC3)[C@@H]1c1c[nH]c2ccccc12 [ARQ197]
Method: as §2

Cisplatin = compound: N.N.[Cl][Pt][Cl] [Cisplatin]
Method: as §2

Test System	IC50 (SRB growth assay) (17-AAG) [µM]	IC50 (SRB growth assay) (Sirolimus) [µM]	IC50 (SRB growth assay) (Bortezomib) [µM]	IC50 (SRB growth assay) (Sorafenib) [µM]	IC50 (SRB growth assay) (Panobinostat) [µM]	IC50 (SRB growth assay) (Vandetanib) [µM]	IC50 (SRB growth assay) (Decitabine) [µM]	IC50 (SRB growth assay) (MI-219) [µM]	IC50 (SRB growth assay) (Paclitaxel) [µM]	IC50 (SRB growth assay) (Brivanib) [µM]	IC50 (SRB growth assay) (Vorinostat) [µM]	IC50 (SRB growth assay) (Tipifarnib) [µM]	IC50 (SRB growth assay) (Serdemetan) [µM]	IC50 (SRB growth assay) (Methotrexate) [µM]	IC50 (SRB growth assay) (Sunitinib) [µM]	IC50 (SRB growth assay) (Nutlin-3) [µM]	IC50 (SRB growth assay) (Erlotinib) [µM]	IC50 (SRB growth assay) (Tamoxifen) [µM]	IC50 (SRB growth assay) (5-Fluorouracil) [µM]	IC50 (SRB growth assay) (Quisinostat) [µM]	IC50 (SRB growth assay) (Azacitidine) [µM]	IC50 (SRB growth assay) (Mitoxantrone) [µM]	IC50 (SRB growth assay) (Doxorubicin) [µM]	IC50 (SRB growth assay) (Docetaxel) [µM]	IC50 (SRB growth assay) (Belinostat) [µM]	IC50 (SRB growth assay) (Gefitinib) [µM]	IC50 (SRB growth assay) (Lapatinib) [µM]	IC50 (SRB growth assay) (Dasatinib) [µM]	IC50 (SRB growth assay) (ARQ197) [µM]	IC50 (SRB growth assay) (Cisplatin) [µM]
MDA-MB 468	0.745	0.00222	0.00431	4.53	0.0149	1.99	0.0777	> 10	0.00156	> 10	1.03	0.077	0.837	0.00754	2.94	> 10	1.15	4.94	5.28	0.00989	2.34	0.00409	0.00963	0.000515	0.436	0.99	0.762	> 10	0.222	0.974
BT 20	0.535	0.000232	0.0139	3.78	0.00793	9.41	> 10	> 10	0.00179	> 10	0.586	0.0319	2.27	> 10	> 10	> 10	6.14	0.0494	2.83	0.00827	1.14	0.0109	0.0105	0.000541	0.197	> 10	5.8	> 10	0.511	> 10
CAMA 1	0.0227	0.000106	0.00612	5.24	0.0126	> 10	1.04	> 10	0.00195	> 10	1.02	3.04	1.52	8.3	5.68	> 10	> 10	7.98	1.56	0.00287	5.56	0.00616	0.0218	0.000662	0.339	> 10	4.2	> 10	0.424	> 10
OCUB-M	0.119	0.000132	0.00335	3.83	0.00813	2.77	3.68	> 10	0.000888	> 10	0.52	0.156	2.85	0.0066	3.52	> 10	9.58	> 10	1.88	0.00592	1.69	0.00127	0.00198	0.000279	0.133	> 10	2.2	> 10	0.483	> 10
MDA-MB 361	0.0414	0.000259	0.00668	5.77	0.00808	4.37	> 10	> 10	0.00481	> 10	0.723	2.21	3.95	0.729	> 10	> 10	3.87	8.84	> 10	0.00395	> 10	0.0259	0.067	0.00141	0.469	4.6	0.499	6.02	0.417	> 10
ZR 75-1	0.0459	0.000244	0.00551	5.98	0.0468	3.82	> 10	> 10	0.00665	> 10	2.98	0.822	0.822	0.0345	> 10	> 10	> 10	4.49	2.32	0.0271	3.75	0.0102	0.0449	0.00452	1.68	> 10	6.33	1.66	0.733	> 10
